Measurements from paper PMC4465889 (Biochemical and biophysical research communications, 2014).

Columns and labels:
[1] = target: L192A mutant human CB2 receptor (Homo sapiens, UniProt P34972, L192A); type: binding
[2] = target: V113L mutant human CB2 receptor (Homo sapiens, UniProt P34972, V113L); type: binding
Sequence of V113L mutant human CB2 receptor (P34972 whole entry V113L): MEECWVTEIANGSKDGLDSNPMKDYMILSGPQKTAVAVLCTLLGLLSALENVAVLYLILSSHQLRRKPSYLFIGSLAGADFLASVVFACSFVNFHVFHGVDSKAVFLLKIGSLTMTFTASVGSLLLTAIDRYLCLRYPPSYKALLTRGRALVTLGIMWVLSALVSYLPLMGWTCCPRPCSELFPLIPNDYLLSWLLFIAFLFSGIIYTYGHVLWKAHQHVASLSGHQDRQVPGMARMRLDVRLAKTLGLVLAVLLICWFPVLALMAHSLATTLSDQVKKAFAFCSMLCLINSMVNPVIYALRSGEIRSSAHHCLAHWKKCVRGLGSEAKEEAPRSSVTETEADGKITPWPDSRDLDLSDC

Sequence of L192A mutant human CB2 receptor (P34972 whole entry L192A): as the sequence (P34972 whole entry V113L) above, with L113V, L192A counted along it

## SR144528
[1]; L192A mutant vs wild type CB2
  Reduction of binding compared to wild type: 5 fold
[1]; L192A mutant vs wild type CB2, in words
  Effect of substitution on CB2 binding affinity compared to the wild-type: slightly reduced
[2]; V113L mutant vs wild type CB2
  Reduction of binding compared to wild type: 6 fold
[2]; V113L mutant vs wild type CB2, in words
  Effect of substitution on CB2 binding affinity compared to the wild-type: slight reduction
